pIC50: −log10 of the molar value. Calls of active or inactive are those of the source. The calls are words filed in the database; no cut-off is given here.
Tests used:
[1] = Toxicity in KSN/Slc nude mouse xenografted with human GCIY cells assessed as effect on body weight at 40 mg/kg, ip administered twice a week for 4 weeks starting from day 4 post inoculation; assay type: organism-based; conditions: in vivo, 672 h
U-251 = assay: Growth inhibition of human U-251 cells measured after 48 hrs by sulforhodamine B assay; assay type: functional
MKN-1 [2] = assay: Cell cycle arrest in human MKN-1 cells assessed as accumulation at G0/G1 phase at 0.3 uM measured after 24 hrs by propidium iodide staining based Muse cell analyzer (reference value: 49.6 +/- 2.6 %); assay type: functional
SF-268 = assay: Growth inhibition of human SF-268 cells measured after 48 hrs by sulforhodamine B assay; assay type: functional
MKN-1 [3] = assay: Cell cycle arrest in human MKN-1 cells assessed as accumulation at G2/M phase at 0.3 uM measured after 24 hrs by propidium iodide staining based Muse cell analyzer (reference value: 33.2 +/- 0.5 %); assay type: functional
MKN-74 = assay: Growth inhibition of human MKN-74 cells measured after 48 hrs by sulforhodamine B assay; assay type: functional
OVCAR-8 = assay: Growth inhibition of human OVCAR-8 cells measured after 48 hrs by sulforhodamine B assay; assay type: functional
OVCAR-4 = assay: Growth inhibition of human OVCAR-4 cells measured after 48 hrs by sulforhodamine B assay; assay type: functional
[4] = target: DNA topoisomerase 2-alpha (Homo sapiens) (UniProt P11388); assay: Inhibition of human DNA topoisomerase 2alpha assessed as suppression of decatenation using catenated kinetoplast DNA as substrate measured after 30 mins by ethidium bromide staining-based UV imaging analysis
Chain of DNA topoisomerase 2-alpha (Homo sapiens) (P11388 whole entry): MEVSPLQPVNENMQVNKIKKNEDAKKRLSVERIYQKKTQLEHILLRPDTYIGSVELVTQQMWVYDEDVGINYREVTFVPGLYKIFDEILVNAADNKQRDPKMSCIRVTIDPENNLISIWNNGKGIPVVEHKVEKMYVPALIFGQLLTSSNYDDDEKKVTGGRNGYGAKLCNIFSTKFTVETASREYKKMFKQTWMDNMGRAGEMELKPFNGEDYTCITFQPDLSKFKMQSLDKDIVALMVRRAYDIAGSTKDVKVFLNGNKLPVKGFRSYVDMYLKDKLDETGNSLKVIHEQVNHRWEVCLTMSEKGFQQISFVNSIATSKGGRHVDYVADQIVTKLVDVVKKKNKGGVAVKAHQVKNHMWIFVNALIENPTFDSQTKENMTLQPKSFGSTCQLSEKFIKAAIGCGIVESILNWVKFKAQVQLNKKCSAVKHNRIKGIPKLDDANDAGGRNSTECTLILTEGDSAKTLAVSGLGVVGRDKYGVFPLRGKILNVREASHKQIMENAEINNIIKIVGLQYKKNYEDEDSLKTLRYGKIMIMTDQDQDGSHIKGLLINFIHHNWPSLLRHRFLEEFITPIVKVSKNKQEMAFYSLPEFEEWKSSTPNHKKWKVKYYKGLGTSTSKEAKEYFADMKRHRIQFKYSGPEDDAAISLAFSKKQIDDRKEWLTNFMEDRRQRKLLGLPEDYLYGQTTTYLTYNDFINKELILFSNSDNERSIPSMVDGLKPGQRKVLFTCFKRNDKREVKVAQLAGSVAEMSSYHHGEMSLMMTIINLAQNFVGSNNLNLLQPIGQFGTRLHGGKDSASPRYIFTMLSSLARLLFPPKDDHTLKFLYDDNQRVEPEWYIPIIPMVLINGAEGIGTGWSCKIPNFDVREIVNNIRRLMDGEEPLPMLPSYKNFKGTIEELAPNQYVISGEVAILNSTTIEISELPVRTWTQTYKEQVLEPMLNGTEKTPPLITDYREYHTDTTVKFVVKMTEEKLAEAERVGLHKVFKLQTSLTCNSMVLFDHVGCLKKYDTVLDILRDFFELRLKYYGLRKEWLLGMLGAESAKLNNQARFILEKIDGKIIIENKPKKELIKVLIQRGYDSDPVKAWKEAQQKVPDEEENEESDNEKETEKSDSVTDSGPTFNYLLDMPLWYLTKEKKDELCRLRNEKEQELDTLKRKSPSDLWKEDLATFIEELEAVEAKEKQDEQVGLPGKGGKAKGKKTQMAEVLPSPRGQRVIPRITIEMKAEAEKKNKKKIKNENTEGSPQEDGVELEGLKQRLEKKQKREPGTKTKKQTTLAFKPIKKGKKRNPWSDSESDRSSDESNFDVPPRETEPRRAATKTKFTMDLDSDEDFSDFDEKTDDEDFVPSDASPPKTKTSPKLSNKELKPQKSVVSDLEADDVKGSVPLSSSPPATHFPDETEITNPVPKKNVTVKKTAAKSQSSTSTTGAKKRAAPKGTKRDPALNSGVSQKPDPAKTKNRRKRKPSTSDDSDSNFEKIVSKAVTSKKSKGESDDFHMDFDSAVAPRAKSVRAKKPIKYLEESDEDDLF

MCF7 = assay: Growth inhibition of human MCF7 cells measured after 48 hrs by sulforhodamine B assay; assay type: functional
[5] = Growth inhibition of human HBC4 cells measured after 48 hrs by sulforhodamine B assay; assay type: functional
KM12 = assay: Growth inhibition of human KM12 cells measured after 48 hrs by sulforhodamine B assay; assay type: functional
MKN-1 [6] = assay: Induction of apoptosis in human MKN-1 cells assessed as activation of caspase 9 at 1 to 10 uM by fluorescence assay; assay type: functional, cell-based; conditions: dose 1-10 µM, time 5-35 hrs, TDE = time-dependent effect
GCIY [7] = assay: Cell cycle arrest in human GCIY cells assessed as accumulation at S phase at 0.3 uM measured after 24 hrs by propidium iodide staining based Muse cell analyzer (reference value: 25.7 +/- 0.7 %); assay type: functional
SF-539 = assay: Growth inhibition of human SF-539 cells measured after 48 hrs by sulforhodamine B assay; assay type: functional
SF-295 = assay: Growth inhibition of human SF-295 cells measured after 48 hrs by sulforhodamine B assay; assay type: functional
RXF 631 = assay: Growth inhibition of human RXF 631 cells measured after 48 hrs by sulforhodamine B assay; assay type: functional
GCIY [8] = assay: Cell cycle arrest in human GCIY cells assessed as accumulation at G0/G1 phase at 0.1 uM measured after 24 hrs by propidium iodide staining based Muse cell analyzer (reference value: 43 +/- 2.2 %); assay type: functional
MKN-1 [9] = assay: Growth inhibition of human MKN-1 cells measured after 48 hrs by sulforhodamine B assay; assay type: functional
MKN-1 [10] = assay: Induction of apoptosis in human MKN-1 cells assessed as activation of caspase 3 measured after 5 to 35 hrs by fluorescence assay; assay type: functional, cell-based; conditions: dose 1-10 µM, time 5-35 hrs
OVCAR-3 = assay: Growth inhibition of human OVCAR-3 cells measured after 48 hrs by sulforhodamine B assay; assay type: functional
MKN-1 [11] = assay: Cytotoxicity against human MKN-1 cells assessed as reduction in cell viability measured after 48 hrs by MTS/CellTiter96 aqueous one solution cell proliferation assay; assay type: functional, cell-based; conditions: MKN-1, 48 h
[12] = Growth inhibition of human HBC5 cells measured after 48 hrs by sulforhodamine B assay; assay type: functional
MDA-MB-231 = assay: Growth inhibition of human MDA-MB-231 cells measured after 48 hrs by sulforhodamine B assay; assay type: functional
MKN-45 = assay: Growth inhibition of human MKN-45 cells measured after 48 hrs by sulforhodamine B assay; assay type: functional
GCIY [13] = assay: Cell cycle arrest in human GCIY cells assessed as accumulation at G0/G1 phase at 0.3 uM measured after 24 hrs by propidium iodide staining based Muse cell analyzer (reference value: 43 +/- 2.2 %); assay type: functional
SNB-75 = assay: Growth inhibition of human SNB-75 cells measured after 48 hrs by sulforhodamine B assay; assay type: functional
NCI-H226 = assay: Growth inhibition of human NCI-H226 cells measured after 48 hrs by sulforhodamine B assay; assay type: functional
GCIY [14] = assay: Induction of apoptosis in human GCIY cells assessed as activation of caspase 3 at 1 to 10 uM by fluorescence assay; assay type: functional, cell-based; conditions: dose 1-10 µM, time 5-35 hrs, TDE = time-dependent effect
MKN-7 = assay: Growth inhibition of human MKN-7 cells measured after 48 hrs by sulforhodamine B assay; assay type: functional
MKN-1 [15] = assay: Cell cycle arrest in human MKN-1 cells assessed as accumulation at G2/M phase at 0.1 uM measured after 24 hrs by propidium iodide staining based Muse cell analyzer (reference value: 33.2 +/- 0.5 %); assay type: functional
NCI-H23 = assay: Growth inhibition of human NCI-H23 cells measured after 48 hrs by sulforhodamine B assay; assay type: functional
OVCAR-5 = assay: Growth inhibition of human OVCAR-5 cells measured after 48 hrs by sulforhodamine B assay; assay type: functional
HCT-15 = assay: Growth inhibition of human HCT-15 cells measured after 48 hrs by sulforhodamine B assay; assay type: functional
A549 = assay: Growth inhibition of human A549 cells measured after 48 hrs by sulforhodamine B assay; assay type: functional
SK-OV-3 = assay: Growth inhibition of human SK-OV-3 cells measured after 48 hrs by sulforhodamine B assay; assay type: functional
GCIY [16] = assay: Cytotoxicity against human GCIY cells assessed as reduction in cell viability measured after 48 hrs by MTS/CellTiter96 aqueous one solution cell proliferation assay; assay type: functional, cell-based
GCIY [17] = assay: Induction of apoptosis in human GCIY cells assessed as activation of caspase 9 measured after 5 to 35 hrs by fluorescence assay; assay type: functional, cell-based; conditions: dose 1-10 µM, time 5-35 hrs
DU-145 = assay: Growth inhibition of human DU-145 cells measured after 48 hrs by sulforhodamine B assay; assay type: functional
MKN-28 = assay: Growth inhibition of human MKN-28 cells measured after 48 hrs by sulforhodamine B assay; assay type: functional
St-4 = assay: Growth inhibition of human St-4 cells measured after 48 hrs by sulforhodamine B assay; assay type: functional
HT-29 = assay: Growth inhibition of human HT-29 cells measured after 48 hrs by sulforhodamine B assay; assay type: functional
GCIY [18] = assay: Cell cycle arrest in human GCIY cells assessed as accumulation at G2/M phase at 0.3 uM measured after 24 hrs by propidium iodide staining based Muse cell analyzer (reference value: 28.9 +/- 1.3 %); assay type: functional
ACHN = assay: Growth inhibition of human ACHN cells measured after 48 hrs by sulforhodamine B assay; assay type: functional
MKN-1 [19] = assay: Cell cycle arrest in human MKN-1 cells assessed as accumulation at G0/G1 phase at 0.1 uM measured after 24 hrs by propidium iodide staining based Muse cell analyzer (reference value: 49.6 +/- 2.6 %); assay type: functional
GCIY [20] = assay: Induction of apoptosis in human GCIY cells assessed as activation of caspase 3 measured after 5 to 35 hrs by fluorescence assay; assay type: functional, cell-based; conditions: dose 1-10 µM, time 5-35 hrs

CC(C)(O)[C@@H]1Cc2c(cc(O)c3c(=O)c(-c4ccc(O)cc4)coc23)O1
Activity [1]: Non-Toxic | GI50 (U-251): 0.331 µM | Activity (MKN-1 [2]): 4.9% | GI50 (SF-268): 0.457 µM | Activity (MKN-1 [3]): 83.6% | GI50 (MKN-74): 6.92 µM | GI50 (OVCAR-8): 0.417 µM | GI50 (OVCAR-4): > 100 µM | inhibition [4]: Active | GI50 (MCF7): 0.138 µM | GI50 [5]: 1.74 µM | GI50 (KM12): 0.813 µM | Activity (MKN-1 [6]): Tde | Activity (GCIY [7]): 7% | GI50 (SF-539): 0.347 µM | GI50 (SF-295): 0.275 µM | GI50 (RXF 631): 5.01 µM | Activity (GCIY [8]): 34.6% | GI50 (MKN-1 [9]): 0.295 µM | Activity (MKN-1 [10]): Dose-dependent effect | GI50 (OVCAR-3): 2.88 µM | pIC50 (MKN-1 [11]): 6.49 | GI50 [12]: 6.76 µM | GI50 (MDA-MB-231): 1.74 µM | GI50 (MKN-45): 0.347 µM | Activity (GCIY [13]): 2.8% | GI50 (SNB-75): 0.537 µM | GI50 (NCI-H226): 0.295 µM | Activity (GCIY [14]): Tde | GI50 (MKN-7): 4.37 µM | Activity (MKN-1 [15]): 60.8% | GI50 (NCI-H23): 0.38 µM | GI50 (OVCAR-5): 1.35 µM | GI50 (HCT-15): 0.676 µM | GI50 (A549): 0.12 µM | GI50 (SK-OV-3): 0.427 µM | pIC50 (GCIY [16]): 6.57 | Activity (GCIY [17]): Dose-dependent effect | GI50 (DU-145): 0.316 µM | GI50 (MKN-28): 7.08 µM | GI50 (St-4): 6.03 µM | GI50 (HT-29): 10.5 µM | Activity (GCIY [18]): 87.3% | GI50 (ACHN): 0.182 µM | Activity (MKN-1 [19]): 24.9% | Activity (GCIY [20]): Dose-dependent effect

From ChEMBL document CHEMBL4680318, “(S)-Erypoegin K, an isoflavone isolated from Erythrina poeppigiana, is a novel inhibitor of topoisomerase IIα: Induction of G2 phase arrest in human gastric cancer cells” (Bioorg Med Chem, 2021)
